# In publication PMC11370402 (bioRxiv, 2024):
# System: human tracheobronchial epithelial cells (hTECs) basal-ESC growth
# Assay: hTEC growth in submerged 2D culture
# Assay type: cell-based
structure (smiles),measurement,value
"O=c1ncn2nc(Sc3ccc(F)cc3F)ccc2c1-c1c(Cl)cccc1Cl [NuP-401, VX-745]",effect on basal cell growth,not found
